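Method: 48-hour compound exposure of cells in 96-well plates, five concentrations, linear interpolation of endpoints. GI50 = concentration required for 50% inhibition of growth. TGI denotes the concentration required for complete inhibition of growth.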
Experiments:
Assay in all cases: NCI tumour cell line growth inhibition, 48 h
[1] = system: DU-145 prostate
[2] = system: KM12 colon
[3] = system: RPMI-8226 leukemia
[4] = system: HOP-92 NSCLC
[5] = system: SNB-19 CNS
[6] = system: SK-MEL-28 melanoma
[7] = system: SK-OV-3 ovarian
[8] = system: UO-31 renal
[9] = system: U251 CNS
[10] = system: T-47D breast
[11] = system: MALME-3M melanoma
[12] = system: PC-3 prostate
[13] = system: CCRF-CEM leukemia
[14] = system: K-562 leukemia
[15] = system: SF-539 CNS
[16] = system: SF-268 CNS
[17] = system: LOX IMVI melanoma
[18] = system: OVCAR-3 ovarian
[19] = system: 786-0 renal
[20] = system: HCT-15 colon
[21] = system: NCI-H23 lung
[22] = system: A498 renal
[23] = system: HS 578T breast
[24] = system: UACC-257 melanoma
[25] = system: SK-MEL-2 melanoma
[26] = system: MDA-MB-435
[27] = system: SK-MEL-5 melanoma
[28] = system: A549 NSCLC
[29] = system: HCC-2998 colon
[30] = system: OVCAR-5 ovarian
[31] = system: NCI-H226 lung
[32] = system: HT29 colon
[33] = system: MDA-N
[34] = system: UACC-62 melanoma
[35] = system: COLO 205 colon
[36] = system: SR leukemia
[37] = system: MCF7 breast
[38] = system: MOLT-4 leukemia
[39] = system: NCI-H460 lung
[40] = system: EKVX NSCLC
[41] = system: OVCAR-4 ovarian
[42] = system: SW-620 colon
[43] = system: TK-10 renal
[44] = system: SF-295 CNS
[45] = system: MDA-MB-231 breast
[46] = system: SN12C renal
[47] = system: ACHN renal
[48] = system: NCI/ADR-RES ovarian
[49] = system: OVCAR-8 ovarian
[50] = system: SNB-75 CNS
[51] = system: HOP-62 NSCLC
[52] = system: HL-60(TB) leukemia
[53] = system: M14 melanoma
[54] = system: RXF 393 renal
[55] = system: NCI-H522 lung
[56] = system: HCT-116 colon
[57] = system: BT-549 breast
[58] = system: CAKI-1 renal
[59] = system: IGROV1 ovarian

CN(C)c1ccc(/C=C/c2ccnc3ccccc23)cc1N
TGI [1]: 30.2 µM
TGI [2]: 65.4 µM
TGI [3]: 15.5 µM
TGI [4]: 5.87 µM
TGI [5]: 28.5 µM
TGI [6]: 26.3 µM
TGI [7]: 31.7 µM
TGI [8]: 20.2 µM
TGI [9]: 40.8 µM
TGI [10]: 5.36 µM
TGI [11]: 28.8 µM
TGI [12]: 22 µM
TGI [13]: > 100 µM
TGI [14]: 23.6 µM
TGI [15]: 28.8 µM
TGI [16]: 23.2 µM
TGI [17]: 32.6 µM
TGI [18]: 10.2 µM
TGI [19]: 53.5 µM
TGI [20]: 22.8 µM
TGI [21]: 21.8 µM
TGI [22]: 22.3 µM
TGI [23]: 61.3 µM
TGI [24]: 7.75 µM
TGI [25]: 21.3 µM
TGI [26]: 8.06 µM
TGI [27]: 11.5 µM
TGI [28]: 32.6 µM
TGI [29]: 25.3 µM
TGI [30]: 31.2 µM
TGI [31]: 36.5 µM
TGI [32]: 17.7 µM
TGI [33]: 12 µM
TGI [34]: 25.9 µM
TGI [35]: 19.6 µM
TGI [36]: 5.87 µM
TGI [37]: 8.29 µM
TGI [38]: 25.5 µM
TGI [39]: 22.3 µM
TGI [40]: 22.4 µM
TGI [41]: 32.9 µM
TGI [42]: 33.3 µM
TGI [43]: 20.2 µM
TGI [44]: 27.7 µM
TGI [45]: 20.1 µM
TGI [46]: 34.4 µM
TGI [47]: 24.1 µM
TGI [48]: 53.9 µM
TGI [49]: 22.1 µM
TGI [50]: 19.5 µM
TGI [51]: 28.4 µM
TGI [52]: 13.9 µM
TGI [53]: 25.1 µM

CC(=O)Nc1ccc2c(c1)C(=O)c1cccc(F)c1-2
TGI [1]: > 100 µM
TGI [2]: > 35 µM
TGI [3]: > 100 µM
TGI [4]: 97.7 µM
TGI [5]: > 100 µM
TGI [6]: > 100 µM
TGI [7]: > 100 µM
TGI [8]: > 100 µM
TGI [9]: > 100 µM
TGI [10]: > 100 µM
TGI [11]: > 100 µM
TGI [12]: > 100 µM
TGI [13]: > 100 µM
TGI [14]: > 100 µM
TGI [15]: > 100 µM
TGI [16]: > 100 µM
TGI [17]: > 100 µM
TGI [18]: > 100 µM
TGI [19]: > 100 µM
TGI [20]: > 80.1 µM
TGI [21]: > 100 µM
GI50 [22]: 31.3 µM
TGI [22]: > 100 µM
TGI [23]: > 100 µM
TGI [24]: > 100 µM
TGI [54]: > 91.2 µM
TGI [25]: > 100 µM
TGI [26]: > 100 µM
TGI [27]: > 100 µM
TGI [28]: > 100 µM
TGI [55]: > 100 µM
GI50 [29]: > 100 µM
TGI [29]: > 100 µM
TGI [30]: > 100 µM
TGI [31]: > 100 µM
TGI [32]: > 100 µM
TGI [34]: > 100 µM
TGI [35]: > 100 µM
TGI [36]: > 71.4 µM
TGI [37]: > 63.9 µM
TGI [38]: > 100 µM
TGI [39]: > 100 µM
TGI [40]: > 100 µM
TGI [41]: > 100 µM
TGI [56]: > 81.7 µM
TGI [42]: > 100 µM
TGI [57]: > 100 µM
TGI [43]: > 100 µM
TGI [44]: > 100 µM
TGI [58]: > 100 µM
TGI [59]: > 100 µM
TGI [45]: > 100 µM
TGI [46]: > 100 µM
TGI [47]: > 100 µM
TGI [48]: > 100 µM
TGI [49]: > 100 µM
TGI [50]: > 100 µM
TGI [51]: > 100 µM
TGI [52]: > 100 µM
TGI [53]: > 100 µM

From PubChem BioAssay (NCI)
